# Laboratory results as given in patent publication US6495591B1, “Fungal efflux pump inhibitors” (Essential Therapeutics, Inc., priority 1997, dated 2002).
# Like-named read-outs stand apart in the source and are kept apart here.
# How the values were obtained:
# [1] = tested on: pCgBEN (MF) efflux pump in S. cerevisiae YEM-40; format: cell-based, C. glabrata
# [2] = molecular target: pCgCDR (ABC) efflux pump in S. cerevisiae YEM-39 (Candida glabrata, UniProt Q6FK23); assay: cell-based; format: cell-based, C. glabrata
# [3] = tested on: YEM 27 C. albicans ΔCDR1ΔCDR2 ΔBENΔFLU1; assay: microbe, parasite or virus in culture; format: cell-based; settings: YEM 27, 24 hrs, 80% inhibition; for MIC of compound in the presence of fluconazole (+): 1/8 × MIC of fluconazole
# [4] = tested on: Aspergillus fumigatus; assay: FEPI MICs in combination with 1/4 the azole's MIC (Table 12); format: cell-based; set-up: FEPI MIC (alone): unit not given here; settings: for FEPI MIC with itraconazole, 60% Inh / FEPI MIC with itraconazole, 80% Inh: itraconazole 0.063 μg/ml (1/4 MIC); for FEPI MIC with ketoconazole, 60% Inh / FEPI MIC with ketoconazole, 80% Inh: ketoconazole 4 μg/ml (1/4 MIC); for FEPI MIC (alone): no azole, 35° C., CM Broth
# Protocol: The combinations were tested against a series of Candida strain with known expression of efflux pumps or with complete deletion of all known pumps and Aspergillus fumigatus. Results are reported as minimum inhibitory concentration (MIC) of […] in the presence or absence of […]. A total of 27 distinct milbemycins were studied.
# [5] = tested on: YEM 15 C. albicans, CDR1CDR2 up; assay: microbe, parasite or virus in culture; format: cell-based; settings: YEM 15, 24 hrs, 80% inhibition; for MIC of compound in the presence of fluconazole (+): 1/8 × MIC of fluconazole
# [6] = tested on: YEM 51 C. glabrata wt; assay: FEPI MIC with/without 1/8 fluconazole MIC at 24 hrs (Table 11); format: cell-based
# [7] = tested on: YEM 17 C. glabrata, CgCDR up; format: cell-based; settings: 24 hrs, 80% inhibition; for MIC of compound in the presence of fluconazole (+): 1/8 × MIC of fluconazole
# [8] = tested on: YEM 30 C. albicans wt; assay: FEPI MIC with/without 1/8 fluconazole MIC at 24 hrs (Table 11); format: cell-based
# [9] = tested on: YEM 53 C. krusei; assay: as above; format: cell-based
# [10] = tested on: YEM 13 C. albicans BEN up; assay: microbe, parasite or virus in culture; format: cell-based; settings: YEM 13, 24 hrs, 80% inhibition; for MIC of compound in the presence of fluconazole (+): 1/8 × MIC of fluconazole
# [11] = molecular target: pFLU (MF) efflux pump in S. cerevisiae YEM-38 (Candida albicans, UniProt G1UB37); assay: cell-based; format: cell-based, C. albicans
# [12] = tested on: YEM 24 C. albicans ΔCDR1, ΔCDR2; assay: microbe, parasite or virus in culture; format: cell-based; settings: YEM 24, 24 hrs, 80% inhibition; for MIC of compound in the presence of fluconazole (+): 1/8 × MIC of fluconazole
# [13] = molecular target: pCDRI (ABC) efflux pump in S. cerevisiae YEM-1 (Candida albicans, UniProt P43071); assay: cell-based; format: cell-based, C. albicans
# [14] = molecular target: pCDR2 (ABC) efflux pump in S. cerevisiae YEM-37 (Candida albicans, UniProt P78595); assay: cell-based; format: cell-based, C. albicans
# [15] = molecular target: pBEN (MF) efflux pump in S. cerevisiae YEM-2 (Candida albicans, UniProt P28873); assay: cell-based; format: cell-based, C. albicans
# [16] = YEM-40 pCgBEN, fluconazole fixed at FLUhalf 2.8
# [17] = YEM-39 pCgCDR, fluconazole fixed at FLUhalf 4
# [18] = fluconazole 32 μg/ml (1/4 MIC), 60% inhibition
# [19] = fluconazole 32 μg/ml (1/4 MIC), 80% inhibition
# [20] = YEM 51, 1/8 × MIC of fluconazole, 24 hrs, 80% inhibition
# [21] = YEM 30, 1/8 × MIC of fluconazole, 24 hrs, 80% inhibition
# [22] = YEM 53, 1/8 × MIC of fluconazole, 24 hrs, 80% inhibition
# [23] = YEM-38 pFLU, fluconazole fixed at FLUhalf 2
# [24] = YEM-1 pCDRI, fluconazole fixed at FLUhalf 5.6
# [25] = YEM-37 pCDR2, fluconazole fixed at FLUhalf 1
# [26] = YEM-2 pBEN, fluconazole fixed at FLUhalf 5.6
# Chain of pFLU (MF) efflux pump in S. cerevisiae YEM-38 (G1UB37 whole entry): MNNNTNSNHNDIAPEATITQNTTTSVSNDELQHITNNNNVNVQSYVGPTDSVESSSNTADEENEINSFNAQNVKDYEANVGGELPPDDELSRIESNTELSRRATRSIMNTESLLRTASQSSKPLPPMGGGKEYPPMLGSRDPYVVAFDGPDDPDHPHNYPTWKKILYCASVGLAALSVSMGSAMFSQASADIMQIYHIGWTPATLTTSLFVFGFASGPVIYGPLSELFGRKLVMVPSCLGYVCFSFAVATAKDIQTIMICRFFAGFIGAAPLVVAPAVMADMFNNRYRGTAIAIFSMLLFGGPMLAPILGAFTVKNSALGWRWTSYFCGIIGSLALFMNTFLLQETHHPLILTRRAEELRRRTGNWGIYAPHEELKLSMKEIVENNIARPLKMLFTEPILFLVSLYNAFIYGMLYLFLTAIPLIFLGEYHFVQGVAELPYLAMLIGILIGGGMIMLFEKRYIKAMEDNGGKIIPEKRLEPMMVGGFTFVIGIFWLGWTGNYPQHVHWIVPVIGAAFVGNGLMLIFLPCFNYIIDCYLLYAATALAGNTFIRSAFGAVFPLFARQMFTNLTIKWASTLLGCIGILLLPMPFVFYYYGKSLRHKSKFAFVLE
# Chain of pBEN (MF) efflux pump in S. cerevisiae YEM-2 (P28873 whole entry): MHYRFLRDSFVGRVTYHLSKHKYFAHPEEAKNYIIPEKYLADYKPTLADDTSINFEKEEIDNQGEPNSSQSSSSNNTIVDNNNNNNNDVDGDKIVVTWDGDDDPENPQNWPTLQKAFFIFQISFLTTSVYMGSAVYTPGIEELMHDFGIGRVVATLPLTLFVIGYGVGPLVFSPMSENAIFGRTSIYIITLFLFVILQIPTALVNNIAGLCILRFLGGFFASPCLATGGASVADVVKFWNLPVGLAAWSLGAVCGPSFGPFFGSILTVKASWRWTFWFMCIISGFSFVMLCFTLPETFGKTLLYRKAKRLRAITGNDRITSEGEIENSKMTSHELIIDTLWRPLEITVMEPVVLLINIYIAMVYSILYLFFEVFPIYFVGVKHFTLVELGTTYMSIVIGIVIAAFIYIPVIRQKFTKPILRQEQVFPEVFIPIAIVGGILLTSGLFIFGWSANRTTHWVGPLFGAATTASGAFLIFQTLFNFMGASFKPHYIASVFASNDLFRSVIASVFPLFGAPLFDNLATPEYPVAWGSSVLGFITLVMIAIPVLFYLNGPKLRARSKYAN
# Chain of pCDR2 (ABC) efflux pump in S. cerevisiae YEM-37 (P78595 whole entry): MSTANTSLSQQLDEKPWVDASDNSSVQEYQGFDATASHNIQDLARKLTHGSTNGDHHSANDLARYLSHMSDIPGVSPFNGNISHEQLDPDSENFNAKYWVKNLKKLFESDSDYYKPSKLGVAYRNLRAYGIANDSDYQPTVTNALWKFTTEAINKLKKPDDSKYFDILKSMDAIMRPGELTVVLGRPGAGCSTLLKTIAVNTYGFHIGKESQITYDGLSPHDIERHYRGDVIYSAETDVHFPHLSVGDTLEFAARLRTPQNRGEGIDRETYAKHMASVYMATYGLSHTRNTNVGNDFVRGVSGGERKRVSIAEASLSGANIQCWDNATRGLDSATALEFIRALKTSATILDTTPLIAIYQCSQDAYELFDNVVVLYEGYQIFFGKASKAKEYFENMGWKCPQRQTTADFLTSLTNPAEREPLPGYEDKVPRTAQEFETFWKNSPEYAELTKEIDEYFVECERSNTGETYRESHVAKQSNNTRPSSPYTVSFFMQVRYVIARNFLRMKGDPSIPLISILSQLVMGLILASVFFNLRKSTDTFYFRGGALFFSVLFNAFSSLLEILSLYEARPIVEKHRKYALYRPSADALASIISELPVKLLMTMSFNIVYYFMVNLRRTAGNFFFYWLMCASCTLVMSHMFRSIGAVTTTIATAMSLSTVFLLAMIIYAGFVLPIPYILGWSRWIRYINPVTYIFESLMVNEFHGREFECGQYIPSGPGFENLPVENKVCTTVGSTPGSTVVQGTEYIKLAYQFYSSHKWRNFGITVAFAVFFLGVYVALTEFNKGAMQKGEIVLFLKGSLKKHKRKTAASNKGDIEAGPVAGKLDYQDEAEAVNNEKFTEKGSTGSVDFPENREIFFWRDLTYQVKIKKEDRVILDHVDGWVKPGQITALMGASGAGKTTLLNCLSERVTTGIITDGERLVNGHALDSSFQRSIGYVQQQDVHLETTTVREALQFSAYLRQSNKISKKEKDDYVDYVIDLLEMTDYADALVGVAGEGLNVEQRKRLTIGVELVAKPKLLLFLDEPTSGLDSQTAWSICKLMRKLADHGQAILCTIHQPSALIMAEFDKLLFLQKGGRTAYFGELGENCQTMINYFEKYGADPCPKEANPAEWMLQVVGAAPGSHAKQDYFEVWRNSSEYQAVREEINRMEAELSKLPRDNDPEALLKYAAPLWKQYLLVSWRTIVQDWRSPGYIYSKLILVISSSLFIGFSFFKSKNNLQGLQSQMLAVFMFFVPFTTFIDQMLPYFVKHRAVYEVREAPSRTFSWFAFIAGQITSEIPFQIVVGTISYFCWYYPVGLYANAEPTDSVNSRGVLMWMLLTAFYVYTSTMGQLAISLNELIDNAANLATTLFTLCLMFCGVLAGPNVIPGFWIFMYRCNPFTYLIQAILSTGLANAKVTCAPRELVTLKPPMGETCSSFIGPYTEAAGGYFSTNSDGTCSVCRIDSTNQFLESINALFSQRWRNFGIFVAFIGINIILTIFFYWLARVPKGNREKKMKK
# Chain of pCgCDR (ABC) efflux pump in S. cerevisiae YEM-39 (Q6FK23 whole entry): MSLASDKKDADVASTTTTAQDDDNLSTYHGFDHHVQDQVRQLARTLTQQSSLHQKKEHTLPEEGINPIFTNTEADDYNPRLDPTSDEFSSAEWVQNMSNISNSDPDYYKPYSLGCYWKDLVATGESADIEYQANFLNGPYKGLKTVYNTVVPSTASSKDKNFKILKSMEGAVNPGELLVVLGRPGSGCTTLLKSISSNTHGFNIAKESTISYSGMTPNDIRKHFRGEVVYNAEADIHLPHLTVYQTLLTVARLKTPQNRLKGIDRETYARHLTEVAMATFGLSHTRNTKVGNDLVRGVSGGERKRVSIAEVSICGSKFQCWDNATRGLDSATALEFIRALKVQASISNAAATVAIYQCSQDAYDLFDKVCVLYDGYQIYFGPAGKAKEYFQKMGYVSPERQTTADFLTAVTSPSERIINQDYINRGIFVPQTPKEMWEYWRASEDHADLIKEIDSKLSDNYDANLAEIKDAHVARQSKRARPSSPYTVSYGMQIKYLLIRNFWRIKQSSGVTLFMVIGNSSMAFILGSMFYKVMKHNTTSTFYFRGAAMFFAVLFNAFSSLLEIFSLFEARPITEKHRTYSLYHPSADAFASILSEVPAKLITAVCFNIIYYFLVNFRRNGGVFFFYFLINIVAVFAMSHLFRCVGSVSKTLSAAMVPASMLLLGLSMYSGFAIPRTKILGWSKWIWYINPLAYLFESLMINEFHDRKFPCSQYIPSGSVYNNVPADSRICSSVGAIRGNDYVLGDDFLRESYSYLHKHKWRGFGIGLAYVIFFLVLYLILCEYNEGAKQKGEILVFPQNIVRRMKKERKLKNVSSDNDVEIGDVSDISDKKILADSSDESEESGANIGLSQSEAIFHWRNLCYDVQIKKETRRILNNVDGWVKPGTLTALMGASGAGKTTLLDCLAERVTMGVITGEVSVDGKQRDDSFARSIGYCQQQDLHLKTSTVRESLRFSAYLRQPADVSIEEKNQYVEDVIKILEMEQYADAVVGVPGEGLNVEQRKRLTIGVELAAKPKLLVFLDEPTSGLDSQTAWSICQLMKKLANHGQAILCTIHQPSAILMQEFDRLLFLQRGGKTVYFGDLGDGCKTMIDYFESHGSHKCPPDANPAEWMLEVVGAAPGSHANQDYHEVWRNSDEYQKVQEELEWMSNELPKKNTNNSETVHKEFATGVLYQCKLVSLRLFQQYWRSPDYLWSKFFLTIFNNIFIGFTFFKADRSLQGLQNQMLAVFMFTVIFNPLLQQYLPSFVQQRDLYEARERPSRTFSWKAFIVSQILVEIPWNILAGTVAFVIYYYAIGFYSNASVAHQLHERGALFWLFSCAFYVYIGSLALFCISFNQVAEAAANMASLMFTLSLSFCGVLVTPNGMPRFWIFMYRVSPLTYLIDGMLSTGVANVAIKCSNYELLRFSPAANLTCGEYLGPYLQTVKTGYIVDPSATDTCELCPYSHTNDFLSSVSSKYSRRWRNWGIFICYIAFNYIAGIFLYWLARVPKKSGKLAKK
Compound,"FEPIhalf (concentration needed to reduce activity of efflux pump by 50%) [1, 16]",MIC of compound in the presence of fluconazole (+) [3],MIC of compound in the absence of fluconazole (−) [3],"FEPI MIC with fluconazole, 60% Inh [4]","FEPI MIC with itraconazole, 60% Inh ([4]; 60% inhibition)","FEPI MIC with itraconazole, 80% Inh ([4]; 80% inhibition)","FEPI MIC with ketoconazole, 60% Inh ([4]; 60% inhibition)","FEPI MIC with ketoconazole, 80% Inh ([4]; 80% inhibition)",FEPI MIC (alone) ([4]; 80% inhibition),MIC of compound in the presence of fluconazole (+) [5],MIC of compound in the absence of fluconazole (−) [5],"MIC of compound in the absence of fluconazole (−) ([6]; YEM 51, 24 hrs, 80% inhibition)",MIC of compound in the presence of fluconazole (+) [7],MIC of compound in the absence of fluconazole (−) [7],"MIC of compound in the absence of fluconazole (−) ([8]; YEM 30, 24 hrs, 80% inhibition)","MIC of compound in the absence of fluconazole (−) ([9]; YEM 53, 24 hrs, 80% inhibition)",MIC of compound in the presence of fluconazole (+) [10],MIC of compound in the absence of fluconazole (−) [10],MIC of compound in the presence of fluconazole (+) [12],MIC of compound in the absence of fluconazole (−) [12],also measured
"CO[C@@H]1C(C)=C[C@H]2C(=O)O[C@H]3C[C@@H](C/C=C(\C)C[C@@H](C)/C=C/C=C4\CO[C@H]1[C@@]42O)O[C@]1(C3)C[C@H](O)[C@H](C)[C@@H](/C(C)=C/C(C)C)O1 [Compound 16, LL-F2849λ (nemedectinλ)]",>64,> 64 µg/mL,> 64 µg/mL,>64,1,>64,0.125,0.125,>64,0.125 µg/mL,> 64 µg/mL,> 64 µg/mL,32 µg/mL,> 64 µg/mL,> 64 µg/mL,> 64 µg/mL,64 µg/mL,> 64 µg/mL,> 64 µg/mL,> 64 µg/mL,"IC50 ([2]; read-out: FEPIhalf (concentration needed to reduce activity of efflux pump by 50%), YEM-39 pCgCDR, fluconazole fixed at FLUhalf 4): 102 µM; FEPI MIC with fluconazole, 80% Inh [4]: >64; MIC of compound in the presence of fluconazole (+) [6]: 2 µg/mL; MIC of compound in the presence of fluconazole (+) [8]: ≦0.03; MIC of compound in the presence of fluconazole (+) [9]: > 64 µg/mL; IC50 ([11]; read-out: FEPIhalf (concentration needed to reduce activity of efflux pump by 50%), YEM-38 pFLU, fluconazole fixed at FLUhalf 2): > 102 µM; IC50 ([13]; read-out: FEPIhalf (concentration needed to reduce activity of efflux pump by 50%), YEM-1 pCDRI, fluconazole fixed at FLUhalf 5.6): 1.6 µM; IC50 ([14]; read-out: FEPIhalf (concentration needed to reduce activity of efflux pump by 50%), YEM-37 pCDR2, fluconazole fixed at FLUhalf 1): 0.399 µM; IC50 ([15]; read-out: FEPIhalf (concentration needed to reduce activity of efflux pump by 50%), YEM-2 pBEN, fluconazole fixed at FLUhalf 5.6): > 102 µM"
"CC[C@H]1O[C@]2(CC[C@@H]1C)C[C@@H]1C[C@@H](C/C=C(\C)C[C@@H](C)/C=C/C=C3\CO[C@@H]4[C@H](O)C(C)=C[C@@H](C(=O)O1)[C@]34O)O2 [Compound 7, Milbemycin α3]",>64,> 64 µg/mL,> 64 µg/mL,>64,>64,>64,≦0.063,≦0.063,>64,0.125 µg/mL,> 64 µg/mL,> 64 µg/mL,> 64 µg/mL,> 64 µg/mL,> 64 µg/mL,> 64 µg/mL,> 64 µg/mL,> 64 µg/mL,> 64 µg/mL,> 64 µg/mL,"IC50 [2]: 29.5 µM; FEPI MIC with fluconazole, 80% Inh [4]: >64; MIC of compound in the presence of fluconazole (+) [6]: > 64 µg/mL; MIC of compound in the presence of fluconazole (+) [8]: ≦0.03; MIC of compound in the presence of fluconazole (+) [9]: 16 µg/mL; IC50 [11]: > 118 µM; IC50 [13]: 0.921 µM; IC50 [14]: 14.7 µM; IC50 [15]: 29.5 µM"
LL-F2849α oxime [Compound 18],–,> 64 µg/mL,> 64 µg/mL,–,>64,>64,0.125,0.125,>64,> 64 µg/mL,> 64 µg/mL,> 64 µg/mL,> 64 µg/mL,> 64 µg/mL,> 64 µg/mL,> 64 µg/mL,> 64 µg/mL,> 64 µg/mL,> 64 µg/mL,> 64 µg/mL,"FEPIhalf (concentration needed to reduce activity of efflux pump by 50%) [1]: >64; FEPIhalf (concentration needed to reduce activity of efflux pump by 50%) [2, 17]: >64; FEPI MIC with fluconazole, 60% Inh [4, 18]: 8; FEPI MIC with fluconazole, 80% Inh [4, 19]: >64; MIC of compound in the presence of fluconazole (+) [6, 20]: > 64 µg/mL; MIC of compound in the presence of fluconazole (+) [8, 21]: ≦0.03; MIC of compound in the presence of fluconazole (+) [9, 22]: > 64 µg/mL; FEPIhalf (concentration needed to reduce activity of efflux pump by 50%) [11, 23]: >64; FEPIhalf (concentration needed to reduce activity of efflux pump by 50%) [13, 24]: >64; FEPIhalf (concentration needed to reduce activity of efflux pump by 50%) [14, 25]: >64; FEPIhalf (concentration needed to reduce activity of efflux pump by 50%) [15, 26]: >64"
5-Keto-8-deoxymilbemycin β1 [Compound 22],–,> 64 µg/mL,> 64 µg/mL,–,>64,>64,≦0.063,≦0.063,>64,≦0.03,> 64 µg/mL,> 64 µg/mL,> 64 µg/mL,> 64 µg/mL,> 64 µg/mL,> 64 µg/mL,> 64 µg/mL,> 64 µg/mL,> 64 µg/mL,> 64 µg/mL,"FEPIhalf (concentration needed to reduce activity of efflux pump by 50%) [1]: >64; FEPIhalf (concentration needed to reduce activity of efflux pump by 50%) [2, 17]: 64; FEPI MIC with fluconazole, 60% Inh [4, 18]: >64; FEPI MIC with fluconazole, 80% Inh [4, 19]: >64; MIC of compound in the presence of fluconazole (+) [6, 20]: > 64 µg/mL; MIC of compound in the presence of fluconazole (+) [8, 21]: ≦0.03; MIC of compound in the presence of fluconazole (+) [9, 22]: 8 µg/mL; FEPIhalf (concentration needed to reduce activity of efflux pump by 50%) [11, 23]: >64; FEPIhalf (concentration needed to reduce activity of efflux pump by 50%) [13, 24]: <0.06; FEPIhalf (concentration needed to reduce activity of efflux pump by 50%) [14, 25]: 1; FEPIhalf (concentration needed to reduce activity of efflux pump by 50%) [15, 26]: >64"
"CC1=C[C@H]2C(=O)O[C@H]3C[C@@H](C/C=C(\C)C[C@@H](C)/C=C/C=C4\CO[C@H]([C@@H]1O)[C@@]42O)O[C@]1(C3)C[C@H](O)[C@H](C)[C@@H](/C(C)=C/C(C)C)O1 [Compound 15, LL-F2849α (nemedectinα)]",>64,> 64 µg/mL,> 64 µg/mL,0.25,1,>64,0.25,0.25,>64,0.5 µg/mL,> 64 µg/mL,> 64 µg/mL,2 µg/mL,> 64 µg/mL,> 64 µg/mL,> 64 µg/mL,> 64 µg/mL,> 64 µg/mL,> 64 µg/mL,> 64 µg/mL,"IC50 [2]: 6.53 µM; FEPI MIC with fluconazole, 80% Inh [4]: >64; MIC of compound in the presence of fluconazole (+) [6]: 4 µg/mL; MIC of compound in the presence of fluconazole (+) [8]: ≦0.03; MIC of compound in the presence of fluconazole (+) [9]: > 64 µg/mL; IC50 [11]: > 104 µM; IC50 [13]: 3.26 µM; IC50 [14]: 1.63 µM; IC50 [15]: > 104 µM"
